The source of these data is US8357654B2, “Multimeric CD40 ligands, method for preparing same and use thereof for preparing drugs” (Centre National de la Recherche Scientifique, priority 2004, dated 2013).

Test [1] has as its system BL41 Burkitt's lymphoma cells (CD40+). Kind of test: Apoptosis of BL41 Burkitt's lymphoma cells, flow cytometry after DiOC6 labelling. Type of test: cell-based. To be noted: 16 hours. On the procedure:
(§1) The agonist effect of the ligands was tested by means of a simple biological test which is based on the property of certain B lymphomas of entering into apoptosis during the bridging of their membranous CD40 molecule (Tong et al., 1999). In fact, these B lymphomas enter into apoptosis during the bridging of their CD40 molecule by an anti-CD40 antibody or by soluble CD40L. The agonist ligands of CD40 will similarly induce an increase in the apoptosis of Burkitt's lymphoma cells which is measured by a precise analysis with flow cytometry.
(§2) BL41 Burkitt's or Raji (ATCC CCL-86) lymphoma cells (5.10^5/mL) two similar cell lines, are cultured in the presence of the different ligands at the desired concentrations. After 16 hours, the cells are labelled with 3,3′-dihexyloxacarbocyanine iodide (DiOC6) at 40 nM (Petit et al., 1995) in order to evaluate the percentage of apoptotic cells using flow cytometry.
Background: Flow cytometry measures light scatter and fluorescence of single cells or particles in a stream.

For test [2], the target named is T1, CD40-CD40L interaction (human CD40 muIg fusion protein, human CD154 muCD8 fusion protein) (Homo sapiens, UniProt P25942).
T1 construct: purchased ANCELL Corporation
T1 sequence (P25942 21-193 limits assumed): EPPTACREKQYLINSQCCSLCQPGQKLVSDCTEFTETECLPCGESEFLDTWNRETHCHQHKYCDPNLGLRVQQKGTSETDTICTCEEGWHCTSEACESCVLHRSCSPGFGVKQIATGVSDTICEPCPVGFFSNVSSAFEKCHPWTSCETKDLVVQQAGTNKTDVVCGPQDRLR
Nature of the test: BIAcore inhibition of the CD40-CD40L interaction. Type of test: binding. The following applies: ligand at 1 μM, CD40L at 35 nM. From the text: (§3) The BIAcore 3000 is a device which allows the study of the interactions between two molecules. Based on surface plasmon resonance, it makes it possible to carry out measurements in real time and thus to follow the interaction kinetics (association and dissociation) of an “analyte” (which is found in an injected solution) with a “ligand” (immobilized on a microchip supporting the measurement). Kinetic measurements at different concentrations of analyte make it possible to calculate the affinity constants of the interaction between the ligand and the analyte. The microchip contains four cells with different measurements, which makes it possible to directly compare a reference cell on which a non-pertinent protein (a protein which has no affinity for the analyte studied but close to the ligand) is immobilized, with the cell on which the ligand is immobilized.
(§4) The test is carried out in two stages: measurement of the direct interaction of the ligands with the CD40 immobilized on the microchip and measurement of the inhibition of the CD40-CD40L interaction by the ligands.
(§5) Rabbit antibodies directed against the constant part of mouse immunoglobulins were immobilized on a microchip. […]
In order to regenerate the cells (i.e. to remove all the proteins adsorbed in non-covalent manner), a 10 mM HCl solution is injected at 5 μL/min over 1 minute. The cells are then ready for a new analysis.
On the technique in general: SPR reads the build-up and loss of mass on a sensor chip optically.

Test [3] has as its target T2, recombinant CD40 (human CD40 muIg fusion protein) (Homo sapiens, UniProt P25942).
T2 construct: purchased ANCELL Corporation, Bayport, Minn
Nature of the test: BIAcore direct interaction of the ligands with immobilized CD40. It counts as binding. The following applies: BIAcore 3000, kinetics of direct association to immobilized CD40, 30 μL/min over 4 minutes; read-out: dissociation constant.
Excerpt: as §3, §4, §5
In order to regenerate the cells (i.e. to remove all the proteins adsorbed in a non-covalent manner), a 50 mM HCl solution is injected at 5 μL/min over 1 minute. The cells are then ready for a new analysis.

Test [4] has as its system Raji (ATCC CCL-86) lymphoma cells (CD40+). Kind of test: Apoptosis of Raji lymphoma cells, flow cytometry after DiOC6 labelling. It counts as cell-based. On the procedure: as §1, §2

Non-standard residues stand in square brackets, D forms with d. Residues, ends and D or L forms follow the SMILES beside them. Groups on a side chain read outwards from the residue. No end group written: not given here. *: point of attachment. Biotin = O=C1N[C@H]2[C@H](CS[C@H]2CCCCC(=O)*)N1; Ahx = NCCCCCC(=O)O

T2 sequence (P25942 21-193 limits assumed): as above

`C[C@H]1NC(=O)[C@H](CCCCNC(=O)CCCCCNC(=O)[C@H](Cc2ccc(O)cc2)NC(=O)[C@H](Cc2ccc(O)cc2)NC(=O)CNC(=O)[C@@H](N)CCCCN)NC(=O)[C@@H](C)NC(=O)[C@H](CCCCNC(=O)CCCCCNC(=O)[C@H](Cc2ccc(O)cc2)NC(=O)[C@H](Cc2ccc(O)cc2)NC(=O)CNC(=O)[C@@H](N)CCCCN)NC(=O)[C@@H](C)NC(=O)[C@H](CCCCNC(=O)CCCCCNC(=O)[C@H](Cc2ccc(O)cc2)NC(=O)[C@H](Cc2ccc(O)cc2)NC(=O)CNC(=O)[C@@H](N)CCCCN)NC1=O` [L4] (cyclo(K([Ahx-Tyr-Tyr-Gly-Lys])[dA]K([Ahx-Tyr-Tyr-Gly-Lys])[dA]K([Ahx-Tyr-Tyr-Gly-Lys])[dA])) gave a specific apoptosis in test [1] (ligand at 12.5 μM, DiOC6 flow cytometry (FIG. 5C)) of 24%.

With `C[C@H]1NC(=O)[C@H](CCCCNC(=O)CCCCCNC(=O)[C@H](Cc2ccc(O)cc2)NC(=O)[C@H](Cc2ccc(O)cc2)NC(=O)[C@H]2CCCN2C(=O)[C@@H](N)CCCCN)NC(=O)[C@@H](C)NC(=O)[C@H](CCCCNC(=O)CCCCCNC(=O)[C@H](Cc2ccc(O)cc2)NC(=O)[C@H](Cc2ccc(O)cc2)NC(=O)[C@H]2CCCN2C(=O)[C@@H](N)CCCCN)NC(=O)[C@@H](C)NC(=O)[C@H](CCCCNC(=O)CCCCCNC(=O)[C@H](Cc2ccc(O)cc2)NC(=O)[C@H](Cc2ccc(O)cc2)NC(=O)[C@H]2CCCN2C(=O)[C@@H](N)CCCCN)NC1=O` [L40] (cyclo(K([Ahx-Tyr-Tyr-dP-Lys])[dA]K([Ahx-Tyr-Tyr-dP-Lys])[dA]K([Ahx-Tyr-Tyr-dP-Lys])[dA])), the “inhibition of the binding of CD40L to CD40” value in test [2] came to 100%.

As for `C[C@H]1NC(=O)[C@H](CCCCNC(=O)CCCCCNC(=O)[C@H](Cc2ccc(O)cc2)NC(=O)[C@H](Cc2ccc(O)cc2)NC(=O)CNC(=O)[C@@H](N)CCCCN)NC(=O)[C@@H](CCCCNC(=O)CCCC[C@@H]2SC[C@@H]3NC(=O)N[C@@H]32)NC(=O)[C@H](CCCCNC(=O)CCCCCNC(=O)[C@H](Cc2ccc(O)cc2)NC(=O)[C@H](Cc2ccc(O)cc2)NC(=O)CNC(=O)[C@@H](N)CCCCN)NC(=O)[C@@H](C)NC(=O)[C@H](CCCCNC(=O)CCCCCNC(=O)[C@H](Cc2ccc(O)cc2)NC(=O)[C@H](Cc2ccc(O)cc2)NC(=O)CNC(=O)[C@@H](N)CCCCN)NC1=O` [L41] (cyclo(K([Ahx-Tyr-Tyr-Gly-Lys])[dA]K([Ahx-Tyr-Tyr-Gly-Lys])[dA]K([Ahx-Tyr-Tyr-Gly-Lys])[dK](Biotin))), the Kd in test [3] was found to be 28 nM.

In the case of “H-Lys-Pro-Tyr-Tyr-Ahx-OH (H-KPYY[Ahx]-OH; SMILES NCCCC[C@H](N)C(=O)N1CCC[C@H]1C(=O)N[C@@H](Cc1ccc(O)cc1)C(=O)N[C@@H](Cc1ccc(O)cc1)C(=O)NCCCCCC(=O)O) [L45, control peptide in which D-Proline is replaced by L-Proline]”, the “biological activity (induction of apoptosis), in words” value in test [1] (dose-response (FIG. 5B, 5C)) was “no activity”.

In the case of “L43: compound of formula (III-a) in which Rc is Ahx-(D)Pro-Tyr-Tyr-NH—(CH2)5—CO— (peptide [Ahx][dP]YY[Ahx]; chain K[dA]K[dA]K[dA]; also: three copies of chain 1 amide-linked via C-terminal Ahx to the three Lys side-chain amines of the ring (chain 2), head-to-tail to a chain's N/C-terminus)”, in test [4] (Raji cells, 16 hours, dose-response (FIG. 5D)), the “effectiveness in inducing apoptosis, in words” value is recorded as “less effective than its homologue L4”. The “inhibition of the binding of CD40L to CD40” value in test [2] is 30%.

On to “L62: compound of formula (III-a) in which Rc is H-Lys-ψ(CH2N)-(D)Pro-Tyr-Tyr-NH—(CH2)5—CO— (peptide H-K[dP]YY[Ahx]; chain K[dA]K[dA]K[dA]; also: reduced bond psi(CH2N) between Lys1 and D-Pro2 of chain 1, three copies of chain 1 amide-linked via C-terminal Ahx to the three Lys side-chain amines of the ring (chain 2), head-to-tail to a chain's N/C-terminus)”, for which the “effectiveness and selectivity of apoptosis induction, in words” value in test [4] (Raji and BL41 (CD40+) versus Jurkat (CD40−) cells, 16 hours (FIGS. 8A, 8B)) was “effective and selective ligand”.
